Data reported in patent US8952024B2, “Herbicidal pyrimidone derivatives” (E I du Pont de Nemours and Company, priority 2009, dated 2015).

Columns and labels:
Test in all cases: Test B pre-/postemergence plant response
Type in all cases: in vivo
[1] = tested on: Italian ryegrass (Lolium multiflorum)
Method in brief: (§1)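 Ratings reflect visual comparison with untreated controls 13 to 15 days after application, from 0 (no effect) to 100 (complete control). Application was preemergence to seeded loam/sand soil or postemergence to 1- to 4-leaf plants, with compound in a non-phytotoxic, surfactant-containing solvent.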

[2] = tested on: Surinam grass (Brachiaria decumbens)
Method in brief: as §1

[3] = tested on: blackgrass (Alopecurus myosuroides)
Method in brief: as §1

corn (Zea mays) = tested on: corn (Zea mays)
Method in brief: as §1

[4] = tested on: downy bromegrass (Bromus tectorum)
Method in brief: as §1

[5] = tested on: goosegrass (Eleusine indica)
Method in brief: as §1

[6] = tested on: johnsongrass (Sorghum halepense)
Method in brief: as §1

kochia (Kochia scoparia) = tested on: kochia (Kochia scoparia)
Method in brief: as §1

[7] = tested on: lambsquarters (Chenopodium album)
Method in brief: as §1

[8] = tested on: large crabgrass (Digitaria sanguinalis)
Method in brief: as §1

[9] = tested on: pigweed (Amaranthus retroflexus)
Method in brief: as §1

[10] = tested on: ragweed (common ragweed, Ambrosia elatior)
Method in brief: as §1

soybean (Glycine max) = tested on: soybean (Glycine max)
Method in brief: as §1

[11] = tested on: velvetleaf (Abutilon theophrasti)
Method in brief: as §1

[12] = tested on: wheat (Triticum aestivum)
Method in brief: as §1

wild oat (Avena fatua) = tested on: wild oat (Avena fatua)
Method in brief: as §1

[13] = tested on: woolly cupgrass (Eriochloa villosa)
Method in brief: as §1

[14] = tested on: yellow nutsedge (Cyperus esculentus)
Method in brief: as §1

[15] = 31 g ai/ha, postemergence, scale 0 to 100, 0 is no effect, 100 is complete control
[16] = 250 g ai/ha, Preemergence, 0 to 100 scale
[17] = Postemergence, 62 g ai/ha, scale 0 (no effect) to 100 (complete control), 13 to 15 days
[18] = Postemergence, 125 g ai/ha, visual rating after 13 to 15 days, scale 0 (no effect) to 100 (complete control)
[19] = Postemergence, 250 g ai/ha, scale 0 to 100 (0 no effect, 100 complete control)
[20] = Preemergence, 31 g ai/ha, scale 0 to 100 (0 no effect, 100 complete control)
[21] = Preemergence, 125 g ai/ha, 0 to 100 scale
[22] = Preemergence, 62 g ai/ha, scale 0 to 100, 0 no effect, 100 complete control

Compound: CCCn1c(-c2ccccc2)ncc(C(=O)C2=C(O)CCCC2=O)c1=O [Compound 50]
- Plant response rating, Ryegrass, Italian [1, 15]: 0
- Plant response rating, Ryegrass, Italian [1, 16]: 0
- Plant response rating, Ryegrass, Italian [1, 17]: 0
- Plant response rating, Ryegrass, Italian [1, 18]: 0
- Plant response rating, Ryegrass, Italian [1, 19]: 0
- Plant response rating, Ryegrass, Italian [1, 20]: 0
- Ryegrass, Italian plant response rating [1, 21]: 0
- Plant response rating, Surinam Grass [2, 15]: 65
- Plant response rating, Surinam Grass [2, 16]: 100
- Plant response rating, Surinam Grass [2, 17]: 75
- Plant response rating, Surinam Grass [2, 18]: 80
- Plant response rating, Surinam Grass [2, 19]: 85
- Plant response rating, Surinam Grass [2, 20]: 75
- Surinam Grass plant response rating [2, 21]: 98
- Plant response rating, Blackgrass [3, 15]: 5
- Plant response rating, Blackgrass [3, 16]: 5
- Plant response rating, Blackgrass [3, 17]: 5
- Plant response rating, Blackgrass [3, 18]: 5
- Plant response rating, Blackgrass [3, 19]: 15
- Plant response rating, Blackgrass [3, 20]: 0
- Plant response rating, Blackgrass [3, 22]: 0
- Blackgrass plant response rating [3, 21]: 0
- Plant response rating, Corn (corn (Zea mays); [15]): 5
- Plant response rating, Corn (corn (Zea mays); [16]): 0
- Plant response rating, Corn (corn (Zea mays); [17]): 10
- Plant response rating, Corn (corn (Zea mays); [18]): 25
- Plant response rating, Corn (corn (Zea mays); [19]): 25
- Plant response rating, Corn (corn (Zea mays); [20]): 0
- Plant response rating, Corn (corn (Zea mays); [22]): 0
- Corn plant response rating (corn (Zea mays); [21]): 0
- Plant response rating, Bromegrass, Downy [4, 15]: 0
- Plant response rating, Bromegrass, Downy [4, 16]: 0
- Plant response rating, Bromegrass, Downy [4, 17]: 5
- Plant response rating, Bromegrass, Downy [4, 18]: 20
- Plant response rating, Bromegrass, Downy [4, 19]: 20
- Plant response rating, Bromegrass, Downy [4, 20]: 0
- Plant response rating, Bromegrass, Downy [4, 22]: 0
- Bromegrass, Downy plant response rating [4, 21]: 0
- Plant response rating, Goosegrass [5, 15]: 75
- Plant response rating, Goosegrass [5, 16]: 100
- Plant response rating, Goosegrass [5, 17]: 80
- Plant response rating, Goosegrass [5, 18]: 90
- Plant response rating, Goosegrass [5, 19]: 90
- Plant response rating, Goosegrass [5, 20]: 95
- Goosegrass plant response rating [5, 21]: 100
- Plant response rating, Johnsongrass [6, 15]: 0
- Plant response rating, Johnsongrass [6, 16]: 95
- Plant response rating, Johnsongrass [6, 17]: 10
- Plant response rating, Johnsongrass [6, 18]: 65
- Plant response rating, Johnsongrass [6, 19]: 70
- Plant response rating, Johnsongrass [6, 20]: 0
- Plant response rating, Johnsongrass [6, 22]: 20
- Johnsongrass plant response rating [6, 21]: 90
- Plant response rating, Kochia (kochia (Kochia scoparia); [15]): 95
- Plant response rating, Kochia (kochia (Kochia scoparia); [17]): 100
- Plant response rating, Kochia (kochia (Kochia scoparia); [18]): 100
- Plant response rating, Kochia (kochia (Kochia scoparia); [19]): 100
- Plant response rating, Lambsquarters [7, 15]: 98
- Plant response rating, Lambsquarters [7, 16]: 100
- Plant response rating, Lambsquarters [7, 17]: 98
- Plant response rating, Lambsquarters [7, 18]: 100
- Plant response rating, Lambsquarters [7, 19]: 100
- Plant response rating, Lambsquarters [7, 20]: 100
- Plant response rating, Lambsquarters [7, 22]: 100
- Lambsquarters plant response rating [7, 21]: 100
- Plant response rating, Crabgrass, Large [8, 15]: 75
- Plant response rating, Crabgrass, Large [8, 16]: 100
- Plant response rating, Crabgrass, Large [8, 17]: 85
- Plant response rating, Crabgrass, Large [8, 18]: 95
- Plant response rating, Crabgrass, Large [8, 19]: 98
- Plant response rating, Crabgrass, Large [8, 20]: 98
- Plant response rating, Crabgrass, Large [8, 22]: 100
- Crabgrass, Large plant response rating [8, 21]: 100
- Plant response rating, Pigweed [9, 15]: 80
- Plant response rating, Pigweed [9, 16]: 100
- Plant response rating, Pigweed [9, 17]: 98
- Plant response rating, Pigweed [9, 18]: 100
- Plant response rating, Pigweed [9, 19]: 100
- Plant response rating, Pigweed [9, 20]: 90
- Pigweed plant response rating [9, 21]: 100
- Plant response rating, Ragweed [10, 15]: 80
- Plant response rating, Ragweed [10, 16]: 100
- Plant response rating, Ragweed [10, 17]: 90
- Plant response rating, Ragweed [10, 18]: 98
- Plant response rating, Ragweed [10, 19]: 98
- Plant response rating, Ragweed [10, 20]: 75
- Ragweed plant response rating [10, 21]: 95
- Plant response rating, Soybean (soybean (Glycine max); [15]): 85
- Plant response rating, Soybean (soybean (Glycine max); [16]): 0
- Plant response rating, Soybean (soybean (Glycine max); [17]): 85
- Plant response rating, Soybean (soybean (Glycine max); [18]): 95
- Plant response rating, Soybean (soybean (Glycine max); [19]): 95
- Plant response rating, Soybean (soybean (Glycine max); [20]): 0
- Plant response rating, Velvetleaf [11, 15]: 90
- Plant response rating, Velvetleaf [11, 16]: 100
- Plant response rating, Velvetleaf [11, 17]: 98
- Plant response rating, Velvetleaf [11, 18]: 98
- Plant response rating, Velvetleaf [11, 19]: 100
- Plant response rating, Velvetleaf [11, 20]: 85
- Velvetleaf plant response rating [11, 21]: 100
- Plant response rating, Wheat [12, 15]: 0
- Plant response rating, Wheat [12, 16]: 0
- Plant response rating, Wheat [12, 17]: 5
- Plant response rating, Wheat [12, 18]: 5
- Plant response rating, Wheat [12, 19]: 15
- Plant response rating, Wheat [12, 20]: 0
- Wheat plant response rating [12, 21]: 0
- Plant response rating, Oat, Wild (wild oat (Avena fatua); [15]): 5
- Plant response rating, Oat, Wild (wild oat (Avena fatua); [16]): 0
- Plant response rating, Oat, Wild (wild oat (Avena fatua); [17]): 5
- Plant response rating, Oat, Wild (wild oat (Avena fatua); [18]): 10
- Plant response rating, Oat, Wild (wild oat (Avena fatua); [19]): 30
- Plant response rating, Oat, Wild (wild oat (Avena fatua); [20]): 0
- Oat, Wild plant response rating (wild oat (Avena fatua); [21]): 0
- Plant response rating, Cupgrass, Woolly [13, 15]: 70
- Plant response rating, Cupgrass, Woolly [13, 16]: 70
- Plant response rating, Cupgrass, Woolly [13, 17]: 75
- Plant response rating, Cupgrass, Woolly [13, 18]: 80
- Plant response rating, Cupgrass, Woolly [13, 19]: 85
- Plant response rating, Cupgrass, Woolly [13, 20]: 0
- Plant response rating, Cupgrass, Woolly [13, 22]: 5
- Cupgrass, Woolly plant response rating [13, 21]: 15
- Plant response rating, Nutsedge, Yellow [14, 15]: 70
- Plant response rating, Nutsedge, Yellow [14, 16]: 90
- Plant response rating, Nutsedge, Yellow [14, 17]: 70
- Plant response rating, Nutsedge, Yellow [14, 18]: 70
- Plant response rating, Nutsedge, Yellow [14, 19]: 75
- Plant response rating, Nutsedge, Yellow [14, 20]: 80
- Nutsedge, Yellow plant response rating [14, 21]: 90
